From the CheMixHub viscosity set
± gives the uncertainty stated by the source.

Assay: xn = mol fraction of the nth substance listed

CCNCCO + O
viscosity [mPa·s]
Details	293.15 K	298.15 K	303.15 K
100 kPa, x2 = 0.55	32.2 ± 0.6	–	18.1 ± 0.3
101 kPa, x1 = 0.0499	–	–	1.968 ± 0.019
101 kPa, x1 = 0.0998	–	–	3.824 ± 0.031
101 kPa, x1 = 0.1506	–	–	6.179 ± 0.049
101 kPa, x1 = 0.2011	–	–	8.652 ± 0.07
101 kPa, x1 = 0.2982	–	–	13.25 ± 0.11
101 kPa, x1 = 0.4029	–	–	17.07 ± 0.17
101 kPa, x1 = 0.4458	–	–	17.98 ± 0.18
101 kPa, x1 = 0.5051	–	–	18.79 ± 0.2
101.3 kPa, x1 = 0.0481	2.723 ± 0.55	–	1.934 ± 0.39
101.3 kPa, x1 = 0.0797	4.52 ± 0.12	3.7 ± 0.1	3.05 ± 0.08
101.3 kPa, x1 = 0.1001	7.45 ± 0.07	–	4.82 ± 0.05
101.3 kPa, x1 = 0.119	7.315 ± 1.5	–	4.617 ± 0.92
101.3 kPa, x1 = 0.168	11.94 ± 0.27	9.26 ± 0.21	7.3 ± 0.16
101.3 kPa, x1 = 0.2	–	–	9.31 ± 0.08
101.3 kPa, x1 = 0.233	17.55 ± 3.5	–	10.33 ± 2.1
101.3 kPa, x1 = 0.3001	23.16 ± 0.2	–	13.36 ± 0.12
101.3 kPa, x1 = 0.4002	28.88 ± 0.24	–	16.31 ± 0.14
101.3 kPa, x1 = 0.447	31.75 ± 6.4	–	17.94 ± 3.6
101.3 kPa, x1 = 0.5	–	–	17.86 ± 0.16
101.3 kPa, x1 = 0.6001	31.42 ± 0.27	–	17.96 ± 0.16
101.3 kPa, x1 = 0.7	28.21 ± 0.25	–	16.61 ± 0.15
101.3 kPa, x1 = 0.8002	23.04 ± 0.21	–	14.28 ± 0.13
101.3 kPa, x1 = 0.9001	17.51 ± 0.16	–	11.45 ± 0.11
101.3 kPa, x2 = 0.3547	30.01 ± 6	–	–
101.33 kPa, x1 = 0.019	1.537 ± 0.13	1.336 ± 0.11	1.172 ± 0.098
101.33 kPa, x1 = 0.0419	2.508 ± 0.21	2.112 ± 0.17	1.804 ± 0.15
101.33 kPa, x1 = 0.0686	3.671 ± 0.3	3.152 ± 0.26	2.613 ± 0.21
101.33 kPa, x1 = 0.1	5.847 ± 0.48	4.671 ± 0.38	3.798 ± 0.31
